Assay results: patent US10888553B2, “Use of non-transition metal coordinated dipyridoxyl compounds to prevent and treat chemotherapy-induced PSN” (KARLSSON-TUNER INVEST AS, priority 2016, dated 2021)
Like-named read-outs stand apart in the source and are kept apart here.

How the values were obtained:
[1] = relative to mangafodipir; cited from earlier work
[2] = Platinum (Pt) urine excretion in rats receiving oxaliplatin i.v. after i.v. mangafodipir, fodipir or saline (Example 2); format: in vivo, Wistar rats; details: 0-24 h urine; for recovery of oxaliplatin-derived Pt in urine, % of the administered dose: 26.4 μmol/kg i.v. 5 min before oxaliplatin 2 mg/kg i.v., administered Pt 277.5 μg, saline control 31.3%; for increase in Pt-excretion: versus saline control
Method: 2 male Wistar rats (approximately 250 g) were injected i.v., via one of the tail veins, with 0.25 ml mangafodipir (20 mg/kg; Lot no. 303001, Nycomed Imaging AS) or fodipir (17.4 mg/kg; Lot no. PKJ 1285/113-14, Nycomed Imaging AS), each corresponding to 26.4 μmol/kg. Another control rat received saline instead of mangafodipir or fodipir. […] The rats were then immediately placed in metabolic cages for urine collection over a period of 0-24 hours. The urine samples were thereafter stored at −80° C. until Pt analysis. Before analysis, the samples were thawed and extensively shaken to obtain homogenous samples. A five ml aliquot was taken from each sample and 5 ml concentrated nitric acid was added. The samples were then resolved in a microwave oven and thereafter diluted with distilled water. The Pt content of each sample was analyzed by ICP-MS (Inductively Coupled Plasma Mass Spectrometry). […] This sample was treated in an identical manner to that of the urine samples and analyzed for its Pt content. Results are presented as total 0-24 h urine Pt content, expressed as the total amount, as well as, as percentage of the injected dose.

[3] = tested on: CT26 colon cancer cells; details: cited from earlier work
[4] = Zn^2+ binding to fodipir; cited from earlier work
[5] = Mn^2+ binding to fodipir; cited from earlier work
[6] = Ca^2+ binding to fodipir; cited from earlier work
[7] = patients, single dose, over a 5-day period; cited from earlier work
[8] = in vivo; cited from earlier work
[9] = cited from earlier work; for Mn^2+ content released from fodipir or its metabolites: intravenous, MRI dose 5-10 μmol/kg
[10] = cited from earlier work
[11] = 10 μmol/kg mangafodipir in 14 of 15 cycles, accumulated dose 140 μmol/kg; patient showed PD-like neurological symptoms; cited from earlier work

## Cc1ncc(COP(=O)([O-])O)c(CN(CCN(CC(=O)O)Cc2c(COP(=O)([O-])O)cnc(C)c2O)CC(=O)O)c1O.Cc1ncc(COP(=O)([O-])O)c(CN(CCN(CC(=O)O)Cc2c(COP(=O)([O-])O)cnc(C)c2O)CC(=O)O)c1O.Cc1ncc(COP(=O)([O-])O)c(CN(CCN(CC(=O)O)Cc2c(COP(=O)([O-])O)cnc(C)c2O)CC(=O)O)c1O.Cc1ncc(COP(=O)([O-])O)c(CN(CCN(CC(=O)O)Cc2c(COP(=O)([O-])O)cnc(C)c2O)CC(=O)O)c1O.Cc1ncc(COP(=O)([O-])O)c(CN(CCN(CC(=O)O)Cc2c(COP(=O)([O-])O)cnc(C)c2O)CC(=O)O)c1O.[Ca+2].[Ca+2].[Ca+2].[Ca+2].[Mn+2] [calmangafodipir]
[1]
  manganese retention (and brain retention) reduced to: about 50%

## Cc1ncc(COP(=O)(O)O)c(CN(CCN(CC(=O)O)Cc2c(COP(=O)(O)O)cnc(C)c2O)CC(=O)O)c1O [fodipir, N,N′-bis-(pyridoxyl-5-phosphate)-ethylenediamine-N,N′-diacetic acid]
[2]
  recovery of oxaliplatin-derived Pt in urine, % of the administered dose: 43.4%
  increase in Pt-excretion: 40.6%
[3]; fodipir 10 μM
  effect of fodipir on cell killing in the lower concentration range of oxaliplatin: additive effect
[3]; fodipir 100 μM alone
  cell killing activity of fodipir towards CT26 colon cancer cells: almost complete cell killing activity
[3]; fodipir 10, 30, 100 μM
  interference of fodipir with the cancer cell killing ability of oxaliplatin: Neither 10, 30, nor 100 μM fodipir interfered negatively
[4]
  log formation constant (log KML): 18
[5]
  log formation constant (log KML): 15
[6]
  log formation constant (log KML): 9

## O=C(O)C(=O)O.[NH-][C@@H]1CCCC[C@H]1[NH-].[Pt+2] [oxaliplatin]
[7]
  Pt dose excreted in feces: 2.1%
  Pt dose excreted in the urine: 53.8%
[8]
  terminal Pt half-life in red blood cells (RBC): about 50 days
  volume of distribution: about 600 litres
[3]; oxaliplatin alone
  killing of CT26 cells by oxaliplatin: killed CT26 cells in a concentration-dependent manner

## mangafodipir
[2]
  recovery of oxaliplatin-derived Pt in urine, % of the administered dose: 33.8%
  increase in Pt-excretion: 8.0%
[9]; MRI dose 5-10 μmol/kg injected
  Mn^2+ that stays bound: 20%
[9]
  Mn^2+ content released from fodipir or its metabolites: About 80%
[9]; listed as Mangafodipir
  Mn^2+ content released from fodipir or its metabolites: about 80%
[10]; after eight cycles with 5 μmol/kg mangafodipir co-treatment (accumulated 40 μmol/kg), before 11.8±5.5 nM
  mean plasma Mn content: 19.8 ± 4.3 nM
[10]; patients with PSN grade 2 or worse on a 1-3 scale
  pre-existing oxaliplatin-induced PSN after combined oxaliplatin and mangafodipir treatment: improved
[11]
  brain MRI finding: increased T1-weighted signal intensity in the basal ganglia
